Assay results: patent US9593305B2, “Differentiation of pluripotent stem cells” (Janssen Biotech, Inc., priority 2008, dated 2017)
Where two headings read alike, the source gives them in different places.

Legend:
[1] = system: H1 human embryonic stem cells; assay: Analogue screening in combination with only GDF-8, SOX17 (Example 21, Tables 18 and 19); format: cell-based; set-up: Sox17 Expression: % of positive control / Cell Number: % of positive control: tested at 2.5 µM; conditions: compound in combination with GDF8
Method: Briefly, clusters of H1 human embryonic stem cells were grown on reduced growth factor Matrigel™ (Invitrogen; Cat #356231)-coated tissue culture plastic. Cells were passaged using collagenase (Invitrogen; Cat #17104-019) treatment and gentle scraping, washed to remove residual enzyme, and plated with even dispersal at a ratio of 1:1 (surface area) on reduced growth factor […]™ (BD Biosciences; Cat #356231)-coated 96-well black plates (Packard ViewPlates; PerkinElmer; Cat #6005182) using volumes of 100 μl/well. Cells were allowed to attach and then recover log phase growth over a 1 to 3 day time period, feeding daily with MEF conditioned medium supplemented with 8 ng/ml bFGF (R&D Systems; Cat #233-FB). Plates were maintained at 37° C., 5% CO2 in a humidified box throughout the duration of assay.
Screening was conducted using a library of the analogue compounds. Compounds from this library were made available as 5 mM stocks in 96-well plate format, solubilized in 100% DMSO (Sigma; Cat #D2650) and stored at −80° C. The library compounds were further diluted to an intermediate concentration of 0.2 mM in 50 mM HEPES (Invitrogen; Cat #15630-080), 20% DMSO and stored at 4° C. Test conditions were performed in triplicate, feeding on alternating days over a four-day assay period. Assays were initiated by aspirating culture medium from each well followed by three washes in PBS (Invitrogen; Cat #14190) to remove residual growth factors. On the first day of assay, test volumes of 200 μl per well were added to each well using DMEM:F12 base medium (Invitrogen; Cat #11330-032) supplemented with 0.5% FCS (HyClone; Cat #SH30070.03) and 200 ng/ml GDF-8 (R&D Systems, Cat #788-G8) plus 2.5 μM compound. On the third day of assay, test volumes of 100 μl per well were added to each well using DMEM:F12 base medium supplemented with 2% FCS plus 200 ng/ml GDF-8 (R&D Systems, Cat #788-G8). Positive control samples contained the same base medium supplemented with FCS and 1000 ng/ml recombinant human activin A (PeproTech; Cat #120-14) throughout the four-day assay along with Wnt3a (20 ng/ml) on days 1 and 2. Negative control samples contained DMEM:F12 base medium supplemented with FCS, adding Wnt3a on days 1 and 2 but omitting treatment with activin A.
At the conclusion of four-days of culture, assay plates were washed twice with PBS (Invitrogen; Cat #14190), fixed with 4% paraformaldehyde (Alexis Biochemical; Cat #ALX-350-011) at room temperature for 20 minutes, then washed three times with PBS and permeabilized with 0.5% Triton X-100 (Sigma; Cat #T8760-2) for 20 minutes at room temperature. Cells were washed again three times with PBS and blocked with 4% chicken serum (Invitrogen; Cat #16110082) in PBS for 30 minutes at room temperature. Primary antibody (goat anti-human SOX17; R&D Systems; Cat #AF1924) was diluted 1:100 in 4% chicken serum and added to each well for one hour at room temperature. Alexa Fluor 488 conjugated secondary antibody (chicken anti-goat IgG; Molecular Probes; Cat #AZ1467) was diluted 1:200 in PBS and added to each sample well after washing three times with PBS. To counterstain nuclei, 4 μg/ml Hoechst 33342 (Invitrogen; Cat #H3570) was added for ten minutes at room temperature. Plates were washed once with PBS and left in 100 μl/well PBS for imaging.
Imaging was performed using an IN Cell Analyzer 1000 (GE Healthcare) utilizing the 51008bs dichroic for cells stained with Hoechst 33342 and Alexa Fluor 488. Exposure times were optimized from positive control wells and from untreated negative control wells stained with secondary antibody alone. Images from 15 fields per well were acquired to compensate for any cell loss during the bioassay and subsequent staining procedures. Measurements for total cell number and total SOX17 intensity were obtained from each well using IN Cell Developer Toolbox 1.7 (GE Healthcare) software. […]

[2] = system: H1 human embryonic stem cells; assay: Secondary assay: compound combined with individual growth factors or small molecules, no activin A (Example 5, Table 4); format: cell-based; conditions: for increase in SOX17 expression (% of the activin A/Wnt3a control): growth factor 50 ng/ml combined with 2.5 μM compound and Wnt3a
Method: Clusters of H1 human embryonic stem cells were grown on reduced growth factor […]™ (Invitrogen; Cat #356231)-coated tissue culture plastic. Cells were passaged using collagenase (Invitrogen; Cat #Cat #17104-019) treatment and gentle scraping, washed to remove residual enzyme, and plated with even dispersal at a ratio of 1:1 (surface area) on reduced growth factor […]™-coated 96-well black plates (Packard ViewPlates; PerkinElmer; Cat #6005182) using volumes of 100 μl/well. Cells were allowed to attach as clusters and then recover log phase growth over a 1 to 3 day period, feeding daily with MEF conditioned medium supplemented with 8 ng/ml bFGF (R&D Systems; Cat #233-FB). Plates were maintained at 37° C., 5% CO2 in a humidified box throughout the duration of assay.
Other agents tested were purchased as follows: BMP-7 (Sigma; Cat #B1434), LY294002 (Cayman; Cat 70920), PD98059, U0126, U0124 (EMD Biosciences; Cat #453710), muscimol (Tocris; Cat #0289), biuculline (Tocris; Cat #0130), sodium butyrate (Sigma; Cat #B5887). All growth factors were solubilized in PBS with 0.1% BSA (Sigma; Cat #A7888) and stored frozen at −80° C. Small molecules were solubilized in 100% DMSO (Sigma; Cat #D2650) and stored frozen at −80° C. The compounds were available as 5 mM stocks in 96-well plate format, solubilized in 100% DMSO and stored at −80° C. The compounds of the present invention were further diluted to an intermediate concentration of 0.2 mM in 50 mM HEPES (Invitrogen; Cat #15630-080), 20% DMSO and stored at 4° C. All growth factors and inhibitors were prepared in a deep well, 96-well polypropylene plate, diluted to 5× intermediate stocks in DMEM:F12 base medium at the beginning of assay and stored at 4° C.
A secondary screening assay was conducted, testing in triplicate and feeding on alternate days over the four-day assay timeframe. Assays were initiated by aspirating culture medium from each well followed by three washes in PBS to remove residual growth factors and serum. Test volumes of 80 μl per well were added back containing DMEM:F12 base medium (Invitrogen; Cat #11330-032) supplemented with 0.625% FCS (HyClone; Cat #SH30070.03), 25 ng/ml Wnt3a (R&D Systems), and 3.125 μM compound plus 20 μl 5× stock of growth factor or small molecule to yield a final concentration of 0.5% FCS, 20 ng/ml Wnt3a, and 2.5 μM compound. […] Final assay concentrations of small molecules tested were as follows: muscimol (20 μM), PD98059 (1 μM), LY294002 (2.5 μM), 00124 (1 μM), U0126 (1 μM), sodium butyrate (0.5 mM). Positive control wells (100 μl/well) contained the same base medium supplemented with 0.5% FCS, 20 ng/ml Wnt3a and 100 ng/ml activin A. Negative control wells (100 μl/well) contained the same base medium with 0.5% FCS and 20 ng/ml Wnt3a, omitting activin A.
On day 3, wells were aspirated and fed with 80 μl DMEM:F12 base medium supplemented with 2.5% FCS (HyClone) and 3.125 μM cyclic aniline-pyridinotriazine compound plus 20 μl 5× stock of growth factors or small molecules per well to yield a final concentration of 2% FCS and 2.5 μM compound (omitting Wnt3a) and as denoted on day one for all remaining growth factors or small molecules. Positive control wells (100 μl/well) contained the same base medium supplemented with 2% FCS and 100 ng/ml activin A, omitting Wnt3a. Negative control wells (100 μl/well) contained the same base medium with 2% FCS, omitting both activin A and Wnt3a.
At the conclusion of four-days of culture, assay plates were washed twice with PBS, fixed with 4% paraformaldehyde (Alexis Biochemical; Cat #ALX-350-011) at room temperature for 20 minutes, then washed three times with PBS and permeabilized with 0.5% Triton X-100 (Sigma; Cat #T8760-2) for 20 minutes at room temperature. Cells were washed again three times with PBS and blocked with 4% chicken serum (Invitrogen; Cat #16110082) in PBS for 30 minutes at room temperature.

[3] = relative to Activin A/Wnt3a of the same plate
[4] = agent combined with 2.5 μM compound and Wnt3a, no activin A

O=C(O)CCc1cccc(Nc2ncnc(-c3cccnc3)n2)c1 [Compound 1, 3-{3-[(4-Pyridin-3-yl-1,3,5-triazin-2-yl)amino]phenyl}propanoic acid]
Cell Number: Average Total Cell Number ([1]; four assay plates): 3213 | Sox17 Expression: Average Total Intensity ([1]; four assay plates): 6.48E+06 | Cell Number: % of positive control [1, 3]: 21.0% | Sox17 Expression: % of positive control [1, 3]: 1.9%

CCCC(=O)[O-].[Na+] [sodium butyrate, reference compound]
effect on SOX17 expression [2, 4]: inhibited or had negligible effects on SOX17 expression

VEGF
increase in SOX17 expression (% of the activin A/Wnt3a control) ([2]; no activin A): 18%

NCc1cc(=O)[nH]o1 [muscimol, reference compound]
effect on SOX17 expression [2, 4]: modest increase in SOX17 expression

COc1cccc(-c2cc(=O)c3ccccc3o2)c1N [PD98059, reference compound]
effect on SOX17 expression [2, 4]: inhibited or had negligible effects on SOX17 expression

CS/C(N)=C(C#N)/C(C#N)=C(\N)SC [Compound U0124, U0124, reference compound]
effect on SOX17 expression [2, 4]: inhibited or had negligible effects on SOX17 expression

N#CC(=C(/N)Sc1ccccc1N)/C(C#N)=C(\N)Sc1ccccc1N [Compound U0126, U0126, reference compound]
effect on SOX17 expression [2]: inhibited or had negligible effects on SOX17 expression

B1: BMP-6: member of the BMP family, R&D Systems (protein, UniProt P22004 375-513, looked up)
Bone morphogenetic protein 6: SASSRRRQQSRNRSTQSQDVARVSSASDYNSSELKTACRKHELYVSFQDLGWQDWIIAPKGYAANYCDGECSFPLNAHMNATNHAIVQTLVHLMNPEYVPKPCCAPTKLNAISVLYFDDNSNVILKKYRNMVVRACGCH
effect on SOX17 expression [2, 4]: inhibited or had negligible effects on SOX17 expression

B2: BMP-7: member of the BMP family (protein, UniProt P18075 293-431, looked up)
Bone morphogenetic protein 7: STGSKQRSQNRSKTPKNQEALRMANVAENSSSDQRQACKKHELYVSFRDLGWQDWIIAPEGYAAYYCEGECAFPLNSYMNATNHAIVQTLVHFINPETVPKPCCAPTQLNAISVLYFDDSSNVILKKYRNMVVRACGCH
effect on SOX17 expression [2, 4]: inhibited or had negligible effects on SOX17 expression

B3: FGF4: growth factor purchased from R&D Systems (protein, UniProt P08620 31-206, looked up)
Fibroblast growth factor 4: APTAPNGTLEAELERRWESLVALSLARLPVAAQPKEAAVQSGAGDYLLGIKRLRRLYCNVGIGFHLQALPDGRIGGAHADTRDSLLELSPVERGVVSIFGVASRFFVAMSSKGKLYGSPFFTDECTFKEILLPNNYNAYESYKYPGMFIALSKNGKTKKGNRVSPTMKVTHFLPRL
retention of cell numbers ([2]; 50 ng/ml combined with 2.5 μM compound and Wnt3a, no activin A): not able to support retention of cell numbers | increase in SOX17 expression (% of the activin A/Wnt3a control) ([2]; no activin A): 17%

B4: BMP-1: member of the BMP family, R&D Systems (protein, UniProt P13497 121-986, looked up)
Bone morphogenetic protein 1: AATSRPERVWPDGVIPFVIGGNFTGSQRAVFRQAMRHWEKHTCVTFLERTDEDSYIVFTYRPCGCCSYVGRRGGGPQAISIGKNCDKFGIVVHELGHVVGFWHEHTRPDRDRHVSIVRENIQPGQEYNFLKMEPQEVESLGETYDFDSIMHYARNTFSRGIFLDTIVPKYEVNGVKPPIGQRTRLSKGDIAQARKLYKCPACGETLQDSTGNFSSPEYPNGYSAHMHCVWRISVTPGEKIILNFTSLDLYRSRLCWYDYVEVRDGFWRKAPLRGRFCGSKLPEPIVSTDSRLWVEFRSSSNWVGKGFFAVYEAICGGDVKKDYGHIQSPNYPDDYRPSKVCIWRIQVSEGFHVGLTFQSFEIERHDSCAYDYLEVRDGHSESSTLIGRYCGYEKPDDIKSTSSRLWLKFVSDGSINKAGFAVNFFKEVDECSRPNRGGCEQRCLNTLGSYKCSCDPGYELAPDKRRCEAACGGFLTKLNGSITSPGWPKEYPPNKNCIWQLVAPTQYRISLQFDFFETEGNDVCKYDFVEVRSGLTADSKLHGKFCGSEKPEVITSQYNNMRVEFKSDNTVSKKGFKAHFFSDKDECSKDNGGCQQDCVNTFGSYECQCRSGFVLHDNKHDCKEAGCDHKVTSTSGTITSPNWPDKYPSKKECTWAISSTPGHRVKLTFMEMDIESQPECAYDHLEVFDGRDAKAPVLGRFCGSKKPEPVLATGSRMFLRFYSDNSVQRKGFQASHATECGGQVRADVKTKDLYSHAQFGDNNYPGGVDCEWVIVAEEGYGVELVFQTFEVEEETDCGYDYMELFDGYDSTAPRLGRYCGSGPPEEVYSAGDSVLVKFHSDDTITKKGFHLRYTSTKFQDTLHSRK
effect on SOX17 expression [2, 4]: inhibited or had negligible effects on SOX17 expression
